From article PMC6375636, “Monotherapy with a low-dose lipopeptide HIV fusion inhibitor maintains long-term viral suppression in rhesus macaques” (PLoS Pathogens, 2019)
Peptide text beside a SMILES is read from it. * marks the point of attachment. Palmitoyl = CCCCCCCCCCCCCCCC(=O)*

Experiments:
Assay type in all cases: cell-based
[1] = molecular target: HIV-1 RHPA.c/2635; settings: Table 2; RHPA.c/2635, subtype B, R5; mean ± SD of 3 assays in triplicate
Outline: (§1)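 Env-pseudotyped luciferase-reporter viruses (pSG3Δenv backbone) or replication-competent clones made in HEK293T. 3-fold inhibitor dilutions preincubated 1 h at room temperature with 100 TCID50 virus, then added to TZM-bl cells (10^4/well) for 48 h at 37 °C; inhibition read as luciferase activity.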

[2] = tested on: HIV-1 pseudovirus, primary Env B04; settings: Env B04, subtype B'; mean ± SD of 3 assays in triplicate
Outline: as §1

[3] = tested on: HIV-1 pseudovirus, primary Env CH120.6; settings: Env CH120.6, subtype B/C; mean ± SD of 3 assays in triplicate
Outline: as §1

[4] = tested on: HIV-1 pseudovirus, primary Env BJOX002000.03.2; settings: Env BJOX002000.03.2, subtype B/C; mean ± SD of 3 assays in triplicate
Outline: as §1

[5] = molecular target: HIV-1 89.6; settings: Table 2; 89.6, subtype B, R5X4; mean ± SD of 3 assays in triplicate
Outline: as §1

[6] = tested on: HIV-1 pseudovirus, primary Env B01; settings: Env B01, subtype B'; mean ± SD of 3 assays in triplicate
Outline: as §1

[7] = tested on: HIV-1 pseudovirus, primary Env pREJO4541; settings: Env pREJO4541, subtype B; mean ± SD of 3 assays in triplicate
Outline: as §1

[8] = tested on: HIV-1 pseudovirus, primary Env CAP45.2.00.G3; settings: Env CAP45.2.00.G3, subtype C; mean ± SD of 3 assays in triplicate
Outline: as §1

[9] = tested on: HIV-1 pseudovirus, primary Env CH64.20; settings: Env CH64.20, subtype B/C; mean ± SD of 3 assays in triplicate
Outline: as §1

[10] = tested on: HIV-1 pseudovirus, primary Env 246_F3_C10_2; settings: Env 246_F3_C10_2, subtype A/C; mean ± SD of 3 assays in triplicate
Outline: as §1

[11] = molecular target: HIV-1 NL4-3; settings: Table 2; NL4-3, subtype B, X4; mean ± SD of 3 assays in triplicate
Outline: as §1

[12] = tested on: HIV-1 pseudovirus, primary Env CE703010217_B6; settings: Env CE703010217_B6, subtype C; mean ± SD of 3 assays in triplicate
Outline: as §1

[13] = tested on: HIV-1 pseudovirus, primary Env X2278_C2_B6; settings: Env X2278_C2_B6, subtype B; mean ± SD of 3 assays in triplicate
Outline: as §1

[14] = tested on: HIV-1 pseudovirus, primary Env PVO; settings: subtype B, mean ± SD of 3 assays in triplicate
Outline: as §1

[15] = molecular target: HIV-1 SG3; settings: Table 2; SG3, subtype B, X4; mean ± SD of 3 assays in triplicate
Outline: as §1

[16] = tested on: HIV-1 pseudovirus, primary Env AE03; settings: Env AE03, subtype A/E; mean ± SD of 3 assays in triplicate
Outline: as §1

[17] = tested on: HIV-1 pseudovirus, primary Env SF162; settings: Env SF162, subtype B; mean ± SD of 3 assays in triplicate
Outline: as §1

[18] = molecular target: HIV-1 CH040.c/2625; settings: Table 2; CH040.c/2625, subtype B, R5; mean ± SD of 3 assays in triplicate
Outline: as §1

[19] = molecular target: HIV-1 R3A; settings: Table 2, subtype B, R5X4, mean ± SD of 3 assays in triplicate
Outline: as §1

[20] = tested on: HIV-1 pseudovirus, primary Env 398-F1_F6_20; settings: Env 398-F1_F6_20, subtype A; mean ± SD of 3 assays in triplicate
Outline: as §1

[21] = tested on: HIV-1 pseudovirus, primary Env CH070.1; settings: Env CH070.1, subtype B/C; mean ± SD of 3 assays in triplicate
Outline: as §1

[22] = tested on: HIV-1 pseudovirus, primary Env R3A; settings: subtype B, mean ± SD of 3 assays in triplicate
Outline: as §1

[23] = tested on: HIV-1 pseudovirus, primary Env X1632-S2-B10; settings: Env X1632-S2-B10, subtype G; mean ± SD of 3 assays in triplicate
Outline: as §1

[24] = tested on: HIV-1 pseudovirus, primary Env SC422661.8; settings: Env SC422661.8, subtype B; mean ± SD of 3 assays in triplicate
Outline: as §1

[25] = tested on: HIV-1 pseudovirus, primary Env HIV_25710–2.43; settings: Env HIV_25710–2.43, subtype C; mean ± SD of 3 assays in triplicate
Outline: as §1

[26] = tested on: replication-competent HIV-1 isolates; settings: mean of the ten isolates of Table 2; read-out: Mean IC50 over the replication-competent isolates
Outline: as §1

[27] = tested on: HIV-1 pseudovirus, primary Env Du156; settings: Env Du156, subtype C; mean ± SD of 3 assays in triplicate
Outline: as §1

## CCCCCCCCCCCCCCCC(=O)NCCCC[C@H](NC(=O)[C@H](CCC(=O)O)NC(=O)[C@H](CC(C)C)NC(=O)[C@H](CCCCN)NC(=O)[C@H](CCCCN)NC(=O)[C@H](CC(C)C)NC(=O)[C@H](CCC(=O)O)NC(=O)[C@H](CCC(=O)O)NC(=O)[C@H](CCC(=O)O)NC(=O)[C@H](CC(N)=O)NC(=O)[C@H](CCCCN)NC(=O)[C@H](CCCCN)NC(=O)[C@H](CCC(N)=O)NC(=O)[C@H](CCC(N)=O)NC(=O)[C@H](CCC(=O)O)NC(=O)[C@H](CCC(=O)O)NC(=O)[C@H](C)NC(=O)[C@H](CCCCN)NC(=O)[C@H](CCCCN)NC(=O)[C@H](CC(C)C)NC(=O)[C@H](CC(C)C)NC(=O)[C@H](CCC(=O)O)NC(=O)[C@H](CCC(=O)O)NC(=O)[C@@H](NC(=O)[C@H](CCCCN)NC(=O)[C@H](CCC(N)=O)NC(=O)[C@H](CCC(=O)O)NC(=O)[C@H](Cc1c[nH]c2ccccc12)NC(C)=O)[C@@H](C)CC)C(N)=O [LP-52, reference compound] (Ac-WEQKIEELLKKAEEQQKKNEEELKKLEK(Palmitoyl)-NH2)
[1]
  IC50: 0.00942 ± 0.00134 nM
[2]
  IC50: 0.0134 ± 0.00094 nM
[3]
  IC50: 0.0199 ± 0.00148 nM
[4]
  IC50: 0.0368 ± 0.00293 nM
[5]
  IC50: 0.0175 ± 0.00205 nM
[6]
  IC50: 0.00706 ± 0.00116 nM
[7]
  IC50: 0.00722 ± 0.00085 nM
[8]
  IC50: 0.00758 ± 0.00064 nM
[9]
  IC50: 0.00971 ± 0.00084 nM
[10]
  IC50: 0.0175 ± 0.00191 nM
[11]
  IC50: 0.0045 ± 0.00249 nM
[12]
  IC50: 0.0117 ± 0.00137 nM
[13]
  IC50: 0.00117 ± 0.00022 nM
[14]
  IC50: 0.0297 ± 0.00783 nM
[15]
  IC50: 0.00522 ± 0.00189 nM
[16]
  IC50: 0.0109 ± 0.00189 nM
[17]
  IC50: 0.0264 ± 0.00381 nM
[18]
  IC50: 0.0667 ± 0.0091 nM
[19]
  IC50: 0.0136 ± 0.00199 nM
[20]
  IC50: 0.00948 ± 0.00174 nM
[21]
  IC50: 0.0276 ± 0.00333 nM
[22]
  IC50: 0.00922 ± 0.0019 nM
[23]
  IC50: 0.0245 ± 0.00239 nM
[24]
  IC50: 0.00939 ± 0.00176 nM
[25]
  IC50: 0.0141 ± 0.00191 nM
[26]
  IC50: 0.0169 nM
[27]
  IC50: 0.00466 ± 0.00075 nM
